Experimental data taken from BindingDB's records for patent US11759530 (City of Hope, 2023).
pIC50: −log10 of the molar value.

How the values were obtained:
Test in all cases: No assay
PIM2 = PIM2 (Homo sapiens, UniProt Q9P1W9)
[1] = biological target: Mitogen-activated protein kinase 11 (Homo sapiens, UniProt Q15759)
[2] = biological target: Mitogen-activated protein kinase 14 (Homo sapiens, UniProt Q16539)
Mitogen-activated protein kinase 14, sequence (Q16539 whole entry): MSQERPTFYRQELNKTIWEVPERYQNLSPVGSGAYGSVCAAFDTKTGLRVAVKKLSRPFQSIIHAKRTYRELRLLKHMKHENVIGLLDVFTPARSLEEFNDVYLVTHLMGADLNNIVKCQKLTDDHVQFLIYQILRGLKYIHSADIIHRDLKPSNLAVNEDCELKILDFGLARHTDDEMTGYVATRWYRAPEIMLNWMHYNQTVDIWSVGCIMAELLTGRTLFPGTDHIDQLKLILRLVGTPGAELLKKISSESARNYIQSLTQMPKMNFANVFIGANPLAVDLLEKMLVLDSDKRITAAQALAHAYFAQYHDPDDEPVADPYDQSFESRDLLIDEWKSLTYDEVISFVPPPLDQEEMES

Mitogen-activated protein kinase 11, sequence (Q15759 whole entry): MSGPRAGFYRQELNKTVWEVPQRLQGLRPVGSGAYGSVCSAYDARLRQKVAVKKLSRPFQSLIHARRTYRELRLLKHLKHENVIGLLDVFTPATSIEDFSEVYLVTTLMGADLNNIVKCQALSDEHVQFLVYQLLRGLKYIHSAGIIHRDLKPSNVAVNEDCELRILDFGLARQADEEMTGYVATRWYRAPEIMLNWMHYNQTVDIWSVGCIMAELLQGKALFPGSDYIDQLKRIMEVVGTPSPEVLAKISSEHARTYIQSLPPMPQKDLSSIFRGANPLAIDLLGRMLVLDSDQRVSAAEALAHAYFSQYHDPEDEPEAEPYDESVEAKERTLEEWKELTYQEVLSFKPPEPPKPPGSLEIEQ
PIM2, sequence (Q9P1W9 whole entry): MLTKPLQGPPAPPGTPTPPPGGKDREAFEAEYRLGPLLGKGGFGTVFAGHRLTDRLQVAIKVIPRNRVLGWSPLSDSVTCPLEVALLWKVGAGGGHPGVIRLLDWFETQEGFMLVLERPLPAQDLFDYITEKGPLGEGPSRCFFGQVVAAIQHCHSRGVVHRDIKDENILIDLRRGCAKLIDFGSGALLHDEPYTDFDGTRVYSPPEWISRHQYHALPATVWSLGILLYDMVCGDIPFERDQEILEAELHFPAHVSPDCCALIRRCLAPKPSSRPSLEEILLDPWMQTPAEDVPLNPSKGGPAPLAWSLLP

**Q.** How did the pIC50 (PIM2) turn out when `O=c1c(O)c(-c2ccc(O)c(O)c2)oc2cc(O)c(O)c(O)c12` [US11759530, Compound Table1.8] was run?
**A.** 5.46

**Q.** How did the pIC50 [1] turn out when `O=S(=O)(c1c(O)c(Cl)cc(Cl)c1Cl)c1c(O)c(Cl)cc(Cl)c1Cl` [HL-7] was run?
**A.** 6.26

**Q.** And the pIC50 [2]?
**A.** 6.89

**Q.** How did the pIC50 [2] turn out when `NC(=O)c1ccc(-c2nc(-c3ccc4c(c3)OCCO4)c(-c3ccccn3)[nH]2)cc1` [US11759530, Compound Table1.3] was run?
**A.** 1.92
